What was measured:
Plasmodium falciparum [1] = test: Antimicrobial activity against chloroquine-sensitive Plasmodium falciparum D10; format: functional
Plasmodium falciparum [2] = test: Antimicrobial activity against chloroquine-resistant Plasmodium falciparum Dd2; format: functional
CHO = test: Cytotoxicity against CHO cells by MTT assay; format: cell-based, Cricetulus griseus; details: for IC50: Cricetulus griseus, CHO
Plasmodium falciparum [3] = test: Resistance index, ratio of IC50 for chloroquine-resistant Plasmodium falciparum Dd2 to IC50 for chloroquine-sensitive Plasmodium falciparum D10; format: functional
Plasmodium falciparum [4] = test: Ratio of chloroquine IC50 to compound IC50 for chloroquine-resistant Plasmodium falciparum Dd2; format: functional
[5] = Selectivity index, ratio of IC50 for CHO cells to IC50 for chloroquine-sensitive Plasmodium falciparum D10; format: toxicity, cell-based; details: hamster; read-out: Ratio IC50
Plasmodium falciparum [6] = test: Resistance modification index, ratio of IC50 for chloroquine in presence of 1 uM compound to IC50 for chloroquine alone for chloroquine-resistant Plasmodium falciparum Dd2; format: functional
Plasmodium falciparum [7] = test: Resistance modification index, ratio of IC50 for chloroquine in presence of 10 uM compound to IC50 for chloroquine alone for chloroquine-resistant Plasmodium falciparum Dd2; format: functional

Row | Structure (SMILES) | IC50 (Plasmodium falciparum [1]) | IC50 (Plasmodium falciparum [2]) | IC50 (CHO) | Ratio IC50 (Plasmodium falciparum [3]) | Ratio IC50 (Plasmodium falciparum [4]) | selectivity ratio [5] | Ratio IC50 (Plasmodium falciparum [6]) | Activity (CHO; chinese hamster, cho) | Ratio IC50 (Plasmodium falciparum [7])
1 | OC12C3C4CC5C6C4C1C6C(C53)N2CCNc1ccnc2cc(Cl)ccc12 (configuration not stated) | 0.00374 µM | 0.0276 µM | 9.54 µM | 7 | 5 | 2550 | – | – | –
2 | OC12C3C4CC5C6C4C1C6C(C53)N2CCCCNc1ccnc2cc(Cl)ccc12 (configuration not stated) | 0.00845 µM | 0.187 µM | 2.39 µM | 22 | – | 283 | – | – | –
3 | OC12C3C4CC5C6C4C1C6C(C53)N2CCCCCCNc1ccnc2cc(Cl)ccc12 (configuration not stated) | 0.0176 µM | 0.253 µM | 2.63 µM | 14 | – | 149 | – | – | –
4 | c1ccc(CNC23OC4C5C6CC(C7C6C4C72)C53)cc1 (configuration not stated) | > 2 µM | > 2 µM | – | – | – | – | 0.6 | Non-toxic | 0.48
5 | CC[C@H]1CN2CCc3cc(OC)c(OC)cc3[C@@H]2C[C@@H]1C[C@H]1NCCc2cc(OC)c(OC)cc21 [EMETINE] | – | – | 0.061 µM | – | – | – | – | – | –

— ChEMBL document CHEMBL3352505, “Pentacycloundecylamines and conjugates thereof as chemosensitizers and reversed chloroquine agents” (Bioorg Med Chem Lett, 2014)
